Assay results reported in patent publication EP3074024B1, “ANTIMICROBIAL COMPOSITIONS FOR USE IN PRODUCTS FOR PETROLEUM EXTRACTION, PERSONAL CARE, WOUND CARE AND OTHER APPLICATIONS” (Agienic Inc., priority 2013, dated 2015).

Tests used:
[1] = room temperature; cited from earlier work
[2] = test system: Desulfovibrio vulgaris (ATCC 29579); test: Activity against sulfate reducing bacteria (3-tube MPN); type: cell-based; conditions: 10ppm; one hour of contact time; starting 2x10^7 mpn/ml; SRB2 media
Description: D. vulgaris was cultured for 2 days prior to experiment in SRB 2 media (Intertek). From this culture, 2 ml of inoculum was added to 18 ml anaerobic phosphate buffered saline (PBS).
Each concentration was tested in duplicate. […] The sealed bottles were incubated at room temperature (23°C) without agitation.
An initial sample was taken from the positive control to establish a starting concentration of bacteria for the experiment. 0.5 ml samples were taken at 1 hour time point and diluted in 4.5 ml anaerobic Dey/Engely (D/E) neutralizing broth to neutralize the Cu bacteriocide. A 1:10 dilution series was made using anaerobic PBS. Bacterial numbers were quantified by a 3-tube most probable number (MPN) method. Three tubes of anaerobic modified Baar's media (10 ml each) per dilution were inoculated with 1 ml each from their respective diluted sample. These tubes were incubated at 37°C for 72 hours. Positive samples were evaluated based on the presence of iron sulfide (FeS), which forms a black precipitate as a byproduct of hydrogen sulfide produced by bacterial growth reacting with iron included in the modified Baar's media.
All test media (PBS, D/E and modified Baar's media) were pretreated with 100 µl Oxyrase oxygen scavengers (obtained from Oxyrase Inc, Mansfield, OH) to render the test media anaerobic. […]

SMILES	Water solubility [1] [µg/mL]	log10 reduction [2]
[Cu][Br] [CuBr, Copper bromide]	11	
[Cl][Cu][Cl] [CuCl2, copper (II) chloride]		less than 3 log10
O=CCCCC=O [gluteraldehyde]		greater than 4.23 log10
